Results taken from article PMC8286840, “Identifying SARS-CoV-2 antiviral compounds by screening for small molecule inhibitors of Nsp3 papain-like protease” (Biochemical Journal, 2021).
Structures can show the parent of a compound that is named as a salt. Where two headings read alike, the source gives them in different places.

Legend:
[1] = molecular target: T1, SARS-CoV-2 PLpro (nsp3 1564–1878) (Severe acute respiratory syndrome coronavirus 2, UniProt P0DTD1); test: biochemical; design: FRET-quenched peptide (Pro3) cleavage by PLpro, 10 min pre-incubation, slope over 20 min, normalised to no-compound control; settings: low concentration screen, read-out: % of control remaining
[2] = molecular target: T1, SARS-CoV-2 PLpro (nsp3 1564–1878); test: biochemical; design: FRET-quenched peptide (Pro3) cleavage by PLpro, 10 min pre-incubation, slope over 20 min, normalised to no-compound control; settings: high concentration screen, read-out: % of control remaining

Compound CCOC(=O)C1=C[C@]2(CC)CCCN3CCc4c(n1c1ccccc41)[C@@H]32 [Vinpocetine] has a remaining activity at 1.25 µM ([1]; Well no.=1432) of 99%, a remaining activity at 1.25 µM ([1]; Well no.=2158) of 98.7% and a remaining activity at 1.25 µM ([1]; Well no.=3228) of 103%. For the same compound, the remaining activity at 3.75 µM ([2]; Well no.=1432) was 102% and the remaining activity at 3.75 µM ([2]; Well no.=3228) was 108%.
Work on Cc1cc(Cn2nnc3c(-c4ccco4)nc(N)nc32)ccc1N [Vipadenant] yielded a remaining activity at 1.25 µM ([1]; Well no.=8603) of 95.2% and a remaining activity at 3.75 µM ([2]; Well no.=8603) of 92.7%.
For O=C(O)CC[C@H](NC(=O)N[C@@H](CCCCNC(=O)[C@H](Cc1ccc2ccccc2c1)NC(=O)[C@H]1CC[C@H](CNC(=O)CN2CCN(CC(=O)O)CCN(CC(=O)O)CCN(CC(=O)O)CC2)CC1)C(=O)O)C(=O)O [Vipivotide tetraxetan], the remaining activity at 1.25 µM ([1]; Well no.=7834) was 103% and the remaining activity at 3.75 µM ([2]; Well no.=7834) was 104%.
Work on COc1c2ccoc2cc2oc(C)cc(=O)c12 [Visnagin] yielded a remaining activity at 1.25 µM ([1]; Well no.=3689) of 99.6% and a remaining activity at 3.75 µM ([2]; Well no.=3689) of 101%.
CC(=O)OC/C=C(C)/C=C/C=C(C)/C=C/C1=C(C)CCCC1(C)C [Vitamin A acetate] gave a remaining activity at 1.25 µM ([1]; Well no.=1700) of 101% and a remaining activity at 3.75 µM ([2]; Well no.=1700) of 97.8%.
For C=C1CC[C@H](O)C/C1=C/C=C1\CCC[C@]2(C)[C@@H]([C@H](C)/C=C/[C@H](C)C(C)C)CC[C@@H]12 [Vitamin D2 (Ergocalciferol)], the remaining activity at 1.25 µM ([1]; Well no.=4684) was 99.3% and the remaining activity at 3.75 µM ([2]; Well no.=4684) was 100%.
C=C1CC[C@H](O)C/C1=C/C=C1\CCC[C@]2(C)[C@@H]([C@H](C)/C=C/[C@H](C)C(C)C)CC[C@@H]12 [Vitamin D2] showed a remaining activity at 1.25 µM ([1]; Well no.=7411) of 107% and a remaining activity at 3.75 µM ([2]; Well no.=7411) of 106%.
C=C1CC[C@H](O)C/C1=C/C=C1\CCC[C@]2(C)[C@@H]([C@H](C)CCCC(C)C)CC[C@@H]12 [Vitamin D3 (Cholecalciferol)] gave a remaining activity at 1.25 µM ([1]; Well no.=4702) of 99.7% and a remaining activity at 3.75 µM ([2]; Well no.=4702) of 100%.
C[C@@H]1O[C@@H](O[C@@H]2[C@@H](O)[C@H](O)[C@@H](CO)O[C@H]2c2c(O)cc(O)c3c(=O)cc(-c4ccc(O)cc4)oc23)[C@H](O)[C@H](O)[C@H]1O [Vitexin-2-O-rhamnoside] gave a remaining activity at 1.25 µM ([1]; Well no.=3405) of 91.6% and a remaining activity at 3.75 µM ([2]; Well no.=3405) of 80.4%.
O=c1cc(-c2ccc(O)cc2)oc2c([C@@H]3O[C@H](CO)[C@@H](O)[C@H](O)[C@H]3O)c(O)cc(O)c12 [Vitexin] gave a remaining activity at 1.25 µM ([1]; Well no.=3396) of 95.4% and a remaining activity at 3.75 µM ([2]; Well no.=3396) of 97.6%.
OCC(CO)N[C@H]1C[C@](O)(CO)[C@@H](O)[C@H](O)[C@H]1O [Voglibose] gave a remaining activity at 1.25 µM ([1]; Well no.=8298) of 90.6% and a remaining activity at 3.75 µM ([2]; Well no.=8298) of 93.5%.
Compound CCOC(=O)N[C@@H]1CC[C@@H]2[C@@H](C1)C[C@H]1C(=O)O[C@H](C)[C@H]1[C@H]2/C=C/c1ccc(-c2cccc(F)c2)cn1 [Vorapaxar] has a remaining activity at 1.25 µM ([1]; Well no.=7567) of 97.6% and a remaining activity at 3.75 µM ([2]; Well no.=7567) of 89.4%.
For C[C@@H](c1ncncc1F)[C@](O)(Cn1cncn1)c1ccc(F)cc1F [Voriconazole], the remaining activity at 1.25 µM ([1]; Well no.=4857) was 101% and the remaining activity at 3.75 µM ([2]; Well no.=4857) was 103%.
For O=C(CCCCCCC(=O)Nc1ccccc1)NO [Vorinostat (SAHA)], the remaining activity at 1.25 µM ([1]; Well no.=1866) was 87.6% and the remaining activity at 3.75 µM ([2]; Well no.=1866) was 82.8%.
Cc1ccc(Sc2ccccc2N2CCNCC2)c(C)c1 [Vortioxetine (hydrobromide)] was tested, and the remaining activity at 1.25 µM ([1]; Well no.=7384) was 98.6% and the remaining activity at 3.75 µM ([2]; Well no.=7384) was 98.7%.
Compound Cc1ccc(Sc2ccccc2N2CCNCC2)c(C)c1 [Vortioxetine] has a remaining activity at 1.25 µM ([1]; Well no.=6269) of 102% and a remaining activity at 3.75 µM ([2]; Well no.=6269) of 102%.
COC(=O)/C(=C1/OC(=O)C(c2ccccc2)=C1O)c1ccccc1 [Vulpinic acid] was tested, and the remaining activity at 1.25 µM ([1]; Well no.=3513) was 102% and the remaining activity at 3.75 µM ([2]; Well no.=3513) was 104%.
Compound COc1ccccc1N1CCN(CCN(C(=O)C2CCCCC2)c2ccccn2)CC1 [WAY-100635 (maleate salt)] has a remaining activity at 1.25 µM ([1]; Well no.=7000) of 99.7% and a remaining activity at 3.75 µM ([2]; Well no.=7000) of 99.5%.
For COc1ccccc1N1CCN(CCN(C(=O)C2CCCCC2)c2ccccn2)CC1 [WAY-100635 maleate], the remaining activity at 1.25 µM ([1]; Well no.=1292) was 107% and the remaining activity at 3.75 µM ([2]; Well no.=1292) was 107%.
In the case of CN(C)CCn1cc(S(=O)(=O)c2cccc(F)c2)c2cccnc21 [WAY-208466 dihydrochloride], the remaining activity at 1.25 µM ([1]; Well no.=6065) is reported as 98.6% and the remaining activity at 3.75 µM ([2]; Well no.=6065) is reported as 97.1%.
With CC(C)OC(=O)C1=CN(C(=O)c2ccc(F)c(F)c2)CC(C)(C)c2c1[nH]c1ccccc21 [WAY-362450] the remaining activity at 1.25 µM ([1]; Well no.=4928) was 95.1% and the remaining activity at 3.75 µM ([2]; Well no.=4928) was 96.2%.
With COc1cccc(OC)c1OCCNCC1COc2ccccc2O1 (centres unmarked) [WB-4101 hydrochloride] the remaining activity at 1.25 µM ([1]; Well no.=443) was 96% and the remaining activity at 3.75 µM ([2]; Well no.=443) was 99.1%.
For Cc1ccc(-c2nn(C(C)(C)CNC(=O)c3ccncc3)c3ncnc(N)c23)cc1 [WEHI-345], the remaining activity at 1.25 µM ([1]; Well no.=6690) was 96.4% and the remaining activity at 3.75 µM ([2]; Well no.=6690) was 96.2%.
With COc1cc2ncnc(Nc3ccc(O)cc3)c2cc1OC [WHI-P131] the remaining activity at 1.25 µM ([1]; Well no.=1338) was 93.8% and the remaining activity at 3.75 µM ([2]; Well no.=1338) was 97.1%.
For COc1cc2ncnc(Nc3cccc(O)c3)c2cc1OC [WHI-P180, Hydrochloride], the remaining activity at 1.25 µM ([1]; Well no.=2679) was 96% and the remaining activity at 3.75 µM ([2]; Well no.=2679) was 96.7%.
Compound C#C[C@]1(O)CC[C@H]2[C@@H]3CCC4=Cc5nc6nc7ccccc7n6cc5C[C@]4(C)[C@H]3CC[C@@]21C [WIN 62,577] has a remaining activity at 1.25 µM ([1]; Well no.=1196) of 99.9% and a remaining activity at 3.75 µM ([2]; Well no.=1196) of 97.4%.
For C[C@H](NC(=O)/C(C#N)=C/c1cccc(Br)n1)c1ccccc1 [WP1066], the remaining activity at 1.25 µM ([1]; Well no.=4779) was 103% and the remaining activity at 3.75 µM ([2]; Well no.=4779) was 99%.
CCC[C@H](NC(=O)/C(C#N)=C/c1cccc(Br)n1)c1ccccc1 [WP1130] gave a remaining activity at 1.25 µM ([1]; Well no.=4862) of 95.4% and a remaining activity at 3.75 µM ([2]; Well no.=4862) of 98.1%.
NCCCNCCS [WR-1065 dihydrochloride] gave a remaining activity at 1.25 µM ([1]; Well no.=6786) of 94.6% and a remaining activity at 3.75 µM ([2]; Well no.=6786) of 94.3%.
Cc1cccc(Nc2cc(Cl)nc(SCC(=O)O)n2)c1C [WY-14643] gave a remaining activity at 1.25 µM ([1]; Well no.=4570) of 97.3% and a remaining activity at 3.75 µM ([2]; Well no.=4570) of 103%.
Work on CCOC(=O)c1cnc(C#Cc2ccc3c(c2)C(C)(C)CC[S+]3[O-])nc1 (centres unmarked) [WYC-209] yielded a remaining activity at 1.25 µM ([1]; Well no.=7204) of 92.4% and a remaining activity at 3.75 µM ([2]; Well no.=7204) of 90.8%.
COC(=O)Nc1ccc(-c2nc(N3CCOCC3)c3cnn(C4CCN(C(=O)OC)CC4)c3n2)cc1 [WYE-354] was tested, and the remaining activity at 1.25 µM ([1]; Well no.=4769) was 101% and the remaining activity at 3.75 µM ([2]; Well no.=4769) was 103%.
COC(=O)Nc1ccc(-c2nc(N3CCOCC3)c3cnn(C4CCN(Cc5cccnc5)CC4)c3n2)cc1 [WYE-687] was tested, and the remaining activity at 1.25 µM ([1]; Well no.=4645) was 104% and the remaining activity at 3.75 µM ([2]; Well no.=4645) was 103%.
With CNC(=O)Nc1ccc(-c2nc(N3CC4CCC(C3)O4)c3cnn(C4CCC5(CC4)OCCO5)c3n2)cc1 [WYE-125132] the remaining activity at 1.25 µM ([1]; Well no.=4641) was 99.8% and the remaining activity at 3.75 µM ([2]; Well no.=4641) was 104%.
